{"source": "patent US20240238232A1", "about": "“COMPOSITIONS AND METHODS FOR THE REDUCTION OR TREATMENT OF INSULIN RESISTANCE AND METABOLIC CONDITIONS” (AXCELLA HEALTH INC., priority 2018, published 2024)", "key": {"[1]": {"system": "B6.Cg-Lep^ob/J (ob/ob) mouse model", "assay": "Oral glucose tolerance test (OGTT) in ob/ob mice, Example 1", "format": "in vivo", "details": "for Blood glucose levels raw data: individual ob/ob mice, OGTT, metformin 450 mg/kg, hydrochloride; for Mean blood glucose level: ob/ob mice OGTT Day 3, metformin hydrochloride 450 mg/kg QD PO", "description": "Amino Acid Composition A-1 and metformin were tested for their ability to affect glucose tolerance in a genetically obese B6.Cg-Lep^ob/J (ob/ob) mouse model (Maida A, et al., 2010, PMID: 20972533).\nEight-week-old male ob/ob mice were subjected to treatment of test articles (Amino Acid Composition A-1 and metformin) followed by oral glucose tolerance test (OGTT) on Day 3. Mice were randomized by body weight and unfasted blood glucose on Day −1. Body weight was recorded daily in the morning before AM dosing on Day 1, Day 2, and Day 3. Test articles were dosed by oral gavage at 10 ml/kg. Dosage of a test article was calculated based on daily body weight. Treatment schedule and dose are listed in the following section (Table 34). AM doses were administered at 0700, and PM doses were administered at 1800. Oral glucose tolerance test (OGTT) was performed after 6-hour fasting on Day 3.\nMice were fasted for 6 hours prior to OGTT test. Food was removed at 0700 hours on Day 3; water was provided during fasting. Blood samples were collected from tail snip or facial puncture at −30 min (relative to OGTT) into K2EDTA tubes for baseline glucose and blood biochemistry (insulin, triglyceride, and cholesterol). Blood glucose was measured by a glucometer (SDI StatStrip Xpress or equivalent). Plasma was collected in K2EDTA and saved at −80° C.\nMice were bled for baseline glucose and plasma at −30 min. Test articles were then dosed by oral gavage at −30 min. Glucose was administered per os (P.O.) at a dosage of 2.0 g/kg body weight. Blood glucose levels were measured at 0 min immediately prior to glucose injection and then at 15, 30, 60, 120 and 240 minutes thereafter (shown as 0.25, 0.5, 1, 2, and 4 hours in Table 35 below).\nData are mean±standard deviation (stdev). (p values by Dunnett's multiple comparisons: **p<0.005 compared to vehicle control; ***p<0.001 compared to vehicle control; ****p<0.0005 compared to vehicle control.)"}, "ob/ob mice; C57/BL6": {"system": "ob/ob mice; C57/BL6", "details": "cited from earlier work"}, "[2]": {"system": "B6.Cg-Lep^ob/J (ob/ob) mouse model", "assay": "Oral glucose tolerance test (OGTT) in ob/ob mice, Example 1", "format": "in vivo", "details": "timepoint −1 hours"}}, "note": "“And” between values parts separate entries of the source, which are not always exact repeats. Equal entries are not always repeated. Structures can show the parent of a compound that is named as a salt. Marks after values point to notes of the source that are not given here.", "data": [{"smiles": "CN(C)C(=N)N=C(N)N", "note": "[Metformin, Metformin hydrochloride]", "values": [{"measurement": "Blood glucose levels raw data", "setting": "[1]; timepoint 0 hours", "value": "274 mg/dL and 234 mg/dL and 220 mg/dL and 129 mg/dL and 140 mg/dL"}, {"measurement": "Blood glucose levels raw data", "setting": "[1]; timepoint 0.25 hours", "value": "387 mg/dL and 397 mg/dL and 427 mg/dL and 310 mg/dL and 247 mg/dL"}, {"measurement": "Blood glucose levels raw data", "setting": "[1]; timepoint 0.5 hours", "value": "462 mg/dL and 439 mg/dL and 482 mg/dL and 307 mg/dL and 261 mg/dL"}, {"measurement": "Blood glucose levels raw data", "setting": "[1]; timepoint 1 hours", "value": "365 mg/dL and 399 mg/dL and 431 mg/dL and 239 mg/dL and 154 mg/dL"}, {"measurement": "Blood glucose levels raw data", "setting": "[1]; timepoint 2 hours", "value": "154 mg/dL and 183 mg/dL and 219 mg/dL and 124 mg/dL and 111 mg/dL"}, {"measurement": "Blood glucose levels raw data", "setting": "[1]; timepoint 4 hours", "value": "118 mg/dL and 93 mg/dL and 155 mg/dL and 101 mg/dL and 80 mg/dL"}, {"measurement": "Mean blood glucose level", "setting": "[1]; timepoint 0 hours", "value": 199.4, "unit": "mg/dL"}, {"measurement": "Mean blood glucose level", "setting": "[1]; timepoint 0.25 hours", "value": "353.6**** mg/dl"}, {"measurement": "Mean blood glucose level", "setting": "[1]; timepoint 0.5 hours", "value": "390.2*** mg/dl"}, {"measurement": "Mean blood glucose level", "setting": "[1]; timepoint 1 hours", "value": 317.6, "unit": "mg/dL"}, {"measurement": "Mean blood glucose level", "setting": "[1]; timepoint 2 hours", "value": 158.2, "unit": "mg/dL"}, {"measurement": "Mean blood glucose level", "setting": "[1]; timepoint 4 hours", "value": 109.4, "unit": "mg/dL"}, {"measurement": "Glucose tolerance (OGTT)", "setting": "ob/ob mice; C57/BL6; C57/BL6, single dose", "value": "improves glucose tolerance"}, {"measurement": "Plasma glucose", "setting": "ob/ob mice; C57/BL6; ob/ob mice (Cool B, et al., 2006)", "value": "lowers plasma glucose"}, {"measurement": "NAFLD", "setting": "ob/ob mice; C57/BL6; ob/ob mice (Lin H Z et al., 2000; Cool B, et al., 2006)", "value": "reverses NAFLD"}, {"measurement": "Blood glucose levels raw data", "setting": "[2]; individual ob/ob mice, OGTT, metformin 450 mg/kg, hydrochloride", "value": "265 mg/dL and 248 mg/dL and 183 mg/dL and 120 mg/dL and 166 mg/dL"}, {"measurement": "Mean blood glucose level", "setting": "[2]; ob/ob mice OGTT Day 3, metformin hydrochloride 450 mg/kg QD PO", "value": 196.4, "unit": "mg/dL"}]}]}
